In assay [1] the test system is β-Glucosidase (almond). As to the kind of experiment: Beta-glucosidase (almond) inhibitor assay, pH 4.8. The assay is classed as biochemical. The procedure: (§1) Yeast alpha-glucosidase and almond beta-glucosidase activities were measured by a modification of the method of Evans, et al., Phytochemistry 22, 768-770 (1983). The modifications included (1) assay of activities at pH 7.4 in HEPES (N-2-hydroxyethylpiperazine-N'-2-ethanesulfonic acid) buffer, 2) measurement in 96 well microtiter plates and (3) inclusion of 10% DMSO in control and test samples.
(§2) The release of p-nitrophenol from the substrate p-nitrophenylglycoside was measured spectrophotometrically in the presence and absence of test compound. Each assay included a known inhibitor of the enzyme as a standard. IC50 values were determined for compounds which inhibited the enzymes more than 50% at a 1 millimolar concentration.
To 100 μl 50 mM sodium citrate buffer, pH 4.8, in a microtiter plate, add 15 μl test compound in DMSO (DMSO alone in control), 20 μl (0.017 units) beta-glucosidase (Sigma) in citrate buffer and pre-incubate at room temperature for 15 minutes. Add 25 μl 2.50 mM p-nitrophenyl-beta-D-glucopyranoside in citrate buffer, as substrate. Incubate at room temperature 20 minutes (reaction is linear for at least 30 minutes). Add 50 μl 0.4 M NaOH. Read absorption change at 405 nm in a Biotek EIA Autoreader. Each sample was tested in triplicate. IC50 values were determined from the linear portion of the log concentration vs % inhibition curve obtained from a minimum of 3 points. Castanospermine was used as standard inhibitor.

A further assay addresses T1, α-Glucosidase (yeast) (Saccharomyces cerevisiae, UniProt P53341).
T1 construct: purchased Sigma
Briefly: Alpha-glucosidase (yeast) inhibition assay, pH 7.4. The conditions noted are these: pH 7.4, read-out: Percent inhibition of α-glucosidase (yeast). In kind it is biochemical. As to the method: as §1, §2
(§3) To 100 μl 50 mM HEPES buffer, pH 7.4, in a microtiter plate, add 20 μl test compound in DMSO (DMSO alone in control), 40 μl (0.013 units) yeast alpha-glucosidase (Sigma) in HEPES buffer and pre-incubate at room temperature for 15 minutes. Add 40 μl 1.25 mM p-nitrophenyl-alpha-D-glucopyranoside (Sigma) in HEPES buffer, as substrate, and monitor absorbance change at 405 nm in a Biotek EIA Autoreader. Absorption change was measured at 15 to 25 minutes (reaction was linear for at least 30 minutes). Each sample was tested in triplicate. IC50 values were determined from the linear portion of the log concentration vs % inhibition curve obtained from a minimum of 3 points. Deoxynojirimycin was used as standard inhibitor.

Assay [2] relates to β-Glucosidase (almond). Briefly: Beta-glucosidase (almond) inhibition assay, pH 7.4. In kind it is biochemical. The procedure:
as §1, §2
as §3, with “μl (0.136” for “μl (0.013”, “units) beta-glucosidase” for “units) yeast alpha-glucosidase”, “mM p-nitrophenyl-beta-D-glucopyranoside” for “mM p-nitrophenyl-alpha-D-glucopyranoside (Sigma)”, “as substrate” for “as substrate,”, “(reaction is” for “(reaction was”, “points. Castanospermine” for “points. Deoxynojirimycin”

A further assay concerns visna virus. Briefly: Inhibition of visna virus growth, plaque reduction assay in sheep choroid plexus (SCP) cells (Method A). In kind it is cell-based. The conditions noted are these: Visna-maedi virus; for inhibition at 10 µM: 0.01 mM; for inhibition at 100 µM: 0.1 mM; for inhibition at 1000 µM: 1.0 mM; for inhibition at 1 µM: 0.001 mM. An excerpt:
Inhibitory activity against visna virus was shown by a conventional plaque reduction assay. Visna virus, a lentivirus genetically very similar to the AIDS virus, is pathogenic for sheep and goats. See Sonigo et al., Cell 42, 369-382 (1985); Haase, Nature 322, 130-136 (1986). Inhibition of visna virus replication in vitro as a useful model for HIV and its inhibition by test compounds has been described by Frank et al., Antimicrobial Agents and Chemotherapy 31 (9), 1369-1374 (1987).
Various illustrative compounds synthesized above were tested for inhibition of visna virus in vitro in a plaque reduction assay (Method A) or for inhibition of HIV-1 in a test which measured reduction of cyto-pathogenic effect in virus-infected syncytium-sensitive Leu-3a-positive CEM cells grown in tissue culture (Method B) as follows:
Sheep choroid plexus (SCP) cells were obtained from American Type Culture Collection (ATCC) catalogue number CRL 1700 and were routinely passaged in vitro in Dulbecco's Modified Eagles (DME) medium supplemented with 20% fetal bovine serum (FBS). SCP cells were passaged once per week at a 1:2 or 1:3 split ratio. Visna was titrated by plaque assay in six-well plates. Virus pools were stored at -70° C.
SCP cells were cultured in 6-well plates to confluence. Wells were washed two times with serum free Minimal Essential Medium (MEM) to remove FBS. 0.2 ml of virus was added per well in MEM supplemented with 4 mM glutamine and gentamycin. After 1 hour adsorption, the virus was aspirated from each well. The appropriate concentration of each compound in 5 ml of Medium 199 (M-199) supplemented with 2% lamb serum, 4 mM glutamine, 0.5% agarose and gentamycin was added to each well. Cultures were incubated at 37° C. in a humidified 5% CO2 incubator for 3-4 weeks. To terminate the test, cultures were fixed in 10% formalin, the agar removed, the monolayers stained with 1% crystal violet and plaques counted. Each compound concentration was run in triplicate. […] 0 is no toxicity observed while 4 is total lysing of the cell monolayer. […]
Control wells without virus were completed to determine the toxicity of compounds.

T1 sequence (P53341 whole entry): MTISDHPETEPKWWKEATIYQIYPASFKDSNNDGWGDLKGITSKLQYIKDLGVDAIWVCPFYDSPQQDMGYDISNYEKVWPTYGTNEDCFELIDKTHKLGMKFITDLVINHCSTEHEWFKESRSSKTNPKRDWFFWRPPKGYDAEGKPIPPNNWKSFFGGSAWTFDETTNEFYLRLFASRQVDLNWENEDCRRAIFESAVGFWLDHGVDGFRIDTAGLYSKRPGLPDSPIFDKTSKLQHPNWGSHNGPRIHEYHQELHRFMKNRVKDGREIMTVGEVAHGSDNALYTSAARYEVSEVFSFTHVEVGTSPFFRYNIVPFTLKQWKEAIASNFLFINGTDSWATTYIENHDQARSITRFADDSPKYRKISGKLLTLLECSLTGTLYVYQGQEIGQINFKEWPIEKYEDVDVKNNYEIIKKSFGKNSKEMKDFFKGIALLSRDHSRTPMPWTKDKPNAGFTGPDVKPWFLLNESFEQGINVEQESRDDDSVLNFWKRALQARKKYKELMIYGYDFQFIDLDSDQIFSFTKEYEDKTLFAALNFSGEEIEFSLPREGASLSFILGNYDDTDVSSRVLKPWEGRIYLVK

Turning to `CCCCN1[C@H](CO)[C@@H](O)[C@H](O)[C@H]1CC#N` [Example 54, 3,6-(Butylimino)-2,3,6-trideoxy-D-manno-heptanonitrile], the “Percent inhibition of β-glucosidase (almond)” value (“Percent inhibition” for short) in the assay on β-Glucosidase (almond) [1] (100 μM) is on record as 0.1%; with β-Glucosidase (almond) [1] (1000 μM), 4.1%; in the assay on β-Glucosidase (almond) [2] (100 μM), -7.8%; with β-Glucosidase (almond) [2] (1000 μM), -7.9%. For the same molecule, the inhibition (commonly the drop in the measured response relative to a control, in per cent) at 100 µM at α-Glucosidase (yeast) was determined as 23.5%. In addition, the inhibition at 1000 µM on α-Glucosidase (yeast) was 22.6%.

On to `CCCCN(CCCC)C[C@@H]1[C@@H](O)[C@H](O)[C@@H](CO)N1CCCC` [Example 49, 2,5-(Butylimino)-1-(dibutylamino)-1,2,5-trideoxy-D-mannitol], for which the “Percent inhibition” value is 10.9% in the assay with β-Glucosidase (almond) [1] (100 μM), 18.8% with β-Glucosidase (almond) [1] (1000 μM), -5.3% in the assay on β-Glucosidase (almond) [2] (100 μM) and 0.2% with β-Glucosidase (almond) [2] (1000 μM). On α-Glucosidase (yeast), the inhibition at 100 µM is -12.6%. Besides, on α-Glucosidase (yeast), the inhibition at 1000 µM was -20.5%.

`CCCCN1C[C@H]2O[C@H]2[C@H](OC(C)=O)[C@H]1COC(C)=O` [Example 45, 2,3-Anhydro-1,5-(butylimino)-1,5-dideoxy-D-mannitol, diacetate]: in the assay with visna virus, the inhibition at 10 µM was 5%, the inhibition at 100 µM is 44% and the inhibition at 1000 µM came out at 85%.

On to `CC(=O)OC[C@@H]1[C@@H](OC(C)=O)[C@H](OC(C)=O)[C@@H](Cl)CN1CCCc1ccccc1` [Example 39, 2-Chloro-1,2,5-trideoxy-1,5-(3-phenyl)propylimino-D-glucitol, triacetate], for which the inhibition at 0.5 µM in the assay with visna virus (0.0005 mM) is 44%. Moreover, in the assay on visna virus (0.005 mM), the inhibition at 5 µM is 58%. The inhibition at 50 µM in the assay with visna virus (0.05 mM) is 98%.

As to `CCCCN1C[C@H](OC(=O)Nc2ccccc2)[C@@H](O)[C@H](O)[C@H]1CO` [Example 35], in the assay with visna virus, the inhibition at 10 µM is 31% and the inhibition at 100 µM came to 41%.

`CCCCN1C[C@H](Sc2nnnn2C)[C@@H](O)[C@H](O)[C@H]1CO` [56(a), 1,5-(Butylimino)-1,5-dideoxy-2-S-(1-methyl-1H-tetrazol-5-yl) 2-thio-D-glucitol]: the “Percent inhibition” value in the assay on β-Glucosidase (almond) [1] (100 μM) is reported as -0.9%; with β-Glucosidase (almond) [1] (1000 μM) it was 13.7%; in the assay on β-Glucosidase (almond) [2] (100 μM), -3.4%; in the assay with β-Glucosidase (almond) [2] (1000 μM), -15.8%. Further, the inhibition at 100 µM on α-Glucosidase (yeast) was found to be 18.1%. Also, on α-Glucosidase (yeast), the inhibition at 1000 µM is -8.2%.

Consider `CCCCN1[C@H](CN)[C@@H](O)[C@H](O)[C@H]1CO` [Example 48, 1-Amino-2,5-(butylimino)-1,2,5-trideoxy-D-mannitol], for which the “Percent inhibition” value with β-Glucosidase (almond) [1] (100 μM) was found to be 9.5%; in the assay on β-Glucosidase (almond) [1] (1000 μM), 27.9%; with β-Glucosidase (almond) [2] (100 μM), 6.9%; in the assay with β-Glucosidase (almond) [2] (1000 μM), 43.1%. The inhibition at 100 µM at α-Glucosidase (yeast) turned out to be 24.6%. Also, the inhibition at 1000 µM at α-Glucosidase (yeast) was found to be 60.9%.

Turning to `CCCCN1[C@H](CO)[C@@H](O)[C@H](O)[C@H]1COC(=O)c1ccccc1` [Example 58, 2,5-(Butylimino)-2,5-dideoxy-D-mannitol, 1-benzoate], the “Percent inhibition” value is 1.8% in the assay on β-Glucosidase (almond) [1] (100 μM), 18.6% with β-Glucosidase (almond) [1] (1000 μM), -7.5% with β-Glucosidase (almond) [2] (100 μM) and 13.2% in the assay with β-Glucosidase (almond) [2] (1000 μM). Further, at α-Glucosidase (yeast), the inhibition at 100 µM turned out to be 36.2%. Further, the inhibition at 1000 µM on α-Glucosidase (yeast) stood at 44%.

Take `CCCCN1C[C@H](Cl)[C@@H](OC(=O)CCC)[C@H](OC(=O)CCC)[C@H]1COC(=O)CCC` [Example 40, 1,5-(Butylimino)-2-chloro-1,2,5-trideoxy-D-glucitrol, tributyrate]: in the assay with visna virus, the inhibition at 1 µM was determined as 0%, the inhibition at 10 µM turned out to be 24% and the inhibition at 100 µM amounted to 77%.

Regarding `CCCCN1C[C@H](OC(=O)OCC(C)C)[C@@H](O)[C@H](O)[C@H]1CO` [Example 34, 1,5-(Butylimino)-1,5-dideoxy-D-glucitol, 2-[(2-methylpropyl)-carbonate]], in the assay on visna virus, the inhibition at 1 µM was -2%, the inhibition at 10 µM was determined as 7%, the inhibition at 100 µM amounted to 89% and the inhibition at 1000 µM was 100%.

For the molecule `CCCCN1[C@H](CO)[C@@H](O)[C@H](O)[C@H]1CSc1nnnn1C` [56(b), 2,5-(Butylimino)-2,5-dideoxy-1S-(1-methyl-1H-tetrazol-5-yl) 1-thio-D-mannitol], the “Percent inhibition” value in the assay on β-Glucosidase (almond) [1] (100 μM) is reported as 7.5%; in the assay on β-Glucosidase (almond) [1] (1000 μM), 29.4%; with β-Glucosidase (almond) [2] (100 μM) it was -6%; in the assay on β-Glucosidase (almond) [2] (1000 μM), 5.7%. Moreover, the inhibition at 100 µM on α-Glucosidase (yeast) was determined as 15.6%. At α-Glucosidase (yeast), the inhibition at 1000 µM worked out at 15.7%.

Regarding `CCCCN1C[C@H](Cl)[C@@H](OC(C)=O)[C@H](OC(C)=O)[C@H]1COC(C)=O` [Example 38, 1,5-(Butylimino)-2-chloro-1,2,5-trideoxy-D-glucitol, triacetate], in the assay on visna virus, the inhibition at 10 µM is 61%, the inhibition at 100 µM is 86% and the inhibition at 1000 µM stood at 97%.

As to `CCCCN1[C@H](CO)[C@@H](O)[C@H](O)[C@H]1CNC(C)=O` [Example 51, 1-(Acetylamino)-2,5-(butylimino)-1,2,5-trideoxy-D-mannitol], the “Percent inhibition” value with β-Glucosidase (almond) [1] (100 μM) was 6%; in the assay with β-Glucosidase (almond) [1] (1000 μM), 26%; with β-Glucosidase (almond) [2] (100 μM), -3.8%; in the assay with β-Glucosidase (almond) [2] (1000 μM) it was 4.4%. The inhibition at 100 µM at α-Glucosidase (yeast) was 27.1%. The inhibition at 1000 µM at α-Glucosidase (yeast) turned out to be 39.3%.

With `OC[C@@H]1[C@@H](O)[C@H](O)[C@@H](Cl)CN1Cc1ccccc1` [Example 32, 2-Chloro-1,2,5-trideoxy-1,5-(phenylmethyl)imino-D-glucitol], in the assay on visna virus, the inhibition at 1 µM came to 12%, the inhibition at 10 µM was -3% and the inhibition at 100 µM came to 28%.

Turning to `CCCCN1C[C@H](C#N)[C@@H](O)[C@H](O)[C@H]1CO` [Example 53, 1,5-(Butylimino)-2-cyano-1,2,5-trideoxy-D-glucitol], the “Percent inhibition” value in the assay on β-Glucosidase (almond) [1] (100 μM) was 1.6%; with β-Glucosidase (almond) [1] (1000 μM), 9.5%; with β-Glucosidase (almond) [2] (100 μM), -4.2%; in the assay with β-Glucosidase (almond) [2] (1000 μM), -7.3%. In addition, on α-Glucosidase (yeast), the inhibition at 100 µM turned out to be 20.1%. On α-Glucosidase (yeast), the inhibition at 1000 µM is -29.4%.

For the origin of these results see patent US5612480A, “2-chloro and 2-bromo derivatives of 1,5-iminosugars” (priority 1995, dated 1997).
